SMILES strings stand for the structures.

Among the targets are Carbonic anhydrase 1 (Homo sapiens, UniProt P00915); Carbonic anhydrase 2 (Homo sapiens, UniProt P00918); Carbonic anhydrase 4 (Homo sapiens, UniProt P22748); Carbonic anhydrase 6 (Homo sapiens, UniProt P23280).
Common to all, as to assay: Esterase Activity Assay
Common to all, as to conditions: pH 7.4

Another experiment concerns the target T1, Carbonic anhydrase 3 (Bos taurus, UniProt Q3SZX4).
T1 sequence (Q3SZX4 whole entry): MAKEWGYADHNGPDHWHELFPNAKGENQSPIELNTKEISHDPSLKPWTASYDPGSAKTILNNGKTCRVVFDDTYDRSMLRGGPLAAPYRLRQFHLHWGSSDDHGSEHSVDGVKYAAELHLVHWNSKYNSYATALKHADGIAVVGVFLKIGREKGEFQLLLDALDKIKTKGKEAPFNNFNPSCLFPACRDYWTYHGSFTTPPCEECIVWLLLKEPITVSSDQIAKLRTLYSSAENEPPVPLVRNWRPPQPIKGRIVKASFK

Carbonic anhydrase 4, sequence (P22748 whole entry): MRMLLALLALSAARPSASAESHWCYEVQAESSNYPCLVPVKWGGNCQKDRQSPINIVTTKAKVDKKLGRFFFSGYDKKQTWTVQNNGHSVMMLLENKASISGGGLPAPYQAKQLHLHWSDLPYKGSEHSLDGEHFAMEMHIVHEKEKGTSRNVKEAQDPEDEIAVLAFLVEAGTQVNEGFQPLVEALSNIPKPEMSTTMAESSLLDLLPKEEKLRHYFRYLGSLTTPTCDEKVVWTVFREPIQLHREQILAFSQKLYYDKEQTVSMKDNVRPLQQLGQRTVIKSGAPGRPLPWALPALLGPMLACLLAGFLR
Carbonic anhydrase 1, sequence (P00915 whole entry): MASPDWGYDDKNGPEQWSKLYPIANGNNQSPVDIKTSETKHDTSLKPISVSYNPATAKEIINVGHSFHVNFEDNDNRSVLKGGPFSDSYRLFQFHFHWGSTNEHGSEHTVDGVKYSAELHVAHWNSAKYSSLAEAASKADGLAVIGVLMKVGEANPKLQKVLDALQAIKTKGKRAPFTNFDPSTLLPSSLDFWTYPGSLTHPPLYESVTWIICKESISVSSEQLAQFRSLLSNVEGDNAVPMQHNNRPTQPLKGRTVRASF
Carbonic anhydrase 6, sequence (P23280 whole entry): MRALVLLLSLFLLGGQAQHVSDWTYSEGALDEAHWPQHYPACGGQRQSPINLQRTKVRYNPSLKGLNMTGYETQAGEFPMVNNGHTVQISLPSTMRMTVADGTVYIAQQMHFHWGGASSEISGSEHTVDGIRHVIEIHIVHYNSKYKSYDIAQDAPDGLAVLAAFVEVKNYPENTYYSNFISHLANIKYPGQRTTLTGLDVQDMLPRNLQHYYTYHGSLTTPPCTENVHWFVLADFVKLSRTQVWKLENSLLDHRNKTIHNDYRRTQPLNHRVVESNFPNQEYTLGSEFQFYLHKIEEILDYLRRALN

`Oc1cc(O)c2c(c1)O[C@H](c1ccc(O)c(O)c1)[C@H](O)C2`: the Ki on Carbonic anhydrase 1 stood at 2320 nM; on Carbonic anhydrase 2, 1240 nM; at Carbonic anhydrase 3, 8930 nM; at Carbonic anhydrase 4, 3980 nM; on Carbonic anhydrase 6, 4360 nM.

As for `Oc1cccc(O)c1`, the affinity on Carbonic anhydrase 3, expressed as Ki, was 196000 nM.

In the case of `Oc1ccccc1O` [1,2-Dihydroxybenzene, XI], on Carbonic anhydrase 3, affinity was put at a Ki of 5790 nM.

With `O=c1c(O)c(-c2ccc(O)c(O)c2)oc2cc(O)cc(O)c12` [2-(3,4-dihydroxyphenyl)-3,5,7-trihydroxy-chromone;hydrate], the affinity at Carbonic anhydrase 3, expressed as Ki, was 3730 nM.

On to `Oc1cc(O)c2c(c1)O[C@H](c1ccc(O)c(O)c1)[C@@H](O)C2` [(+)-Catechin], for which, on Carbonic anhydrase 3, the inhibition constant Ki was determined as 9710 nM.

Take `CC(C)(O)[C@@H]1CC[C@](C)([C@H]2[C@@H](O)C[C@@]3(C)C4C[C@H](O[C@@H]5OC(CO)[C@@H](O)C(O)[C@@H]5O)C5C(C)(C)[C@@H](O[C@@H]6OC[C@@H](O)C(O)[C@@H]6O[C@@H]6OC[C@H](O)C(O)[C@@H]6O)CC[C@@]56C[C@@]46CC[C@]23C)O1` (stereo partly drawn) [α-CA inhibitor, 7]: the Ki was 940 nM at Carbonic anhydrase 1; 470 nM at Carbonic anhydrase 2; 1380 nM at Carbonic anhydrase 3; 2410 nM on Carbonic anhydrase 4; 4710 nM on Carbonic anhydrase 6.

With `CC(C)(O)[C@@H]1CC[C@](C)([C@H]2[C@@H](O)C[C@@]3(C)C4C[C@H](O[C@@H]5OC(CO)[C@@H](O)C(O)[C@@H]5O)C5C(C)(C)[C@@H](O[C@@H]6OC[C@@H](O)C(O)[C@@H]6O)CC[C@@]56C[C@@]46CC[C@]23C)O1` (stereo partly drawn) [α-CA inhibitor, 8], the Ki worked out at 1470 nM at Carbonic anhydrase 1; 970 nM at Carbonic anhydrase 2; 1930 nM on Carbonic anhydrase 3; 2750 nM on Carbonic anhydrase 4; 6960 nM at Carbonic anhydrase 6.

As for `CC(C)(O)[C@@H]1CC[C@](C)([C@H]2[C@@H](O)C[C@@]3(C)C4C[C@H](O[C@@H]5OC[C@@H](O)C(O)[C@@H]5O)C5C(C)(C)[C@@H](O[C@@H]6OC[C@@H](O)C(O)[C@@H]6O)CC[C@@]56C[C@@]46CC[C@]23C)O1` (stereo partly drawn) [α-CA inhibitor, 10], the Ki is 2210 nM on Carbonic anhydrase 1; 1280 nM on Carbonic anhydrase 2; 2490 nM at Carbonic anhydrase 3; 4360 nM on Carbonic anhydrase 4; 9780 nM at Carbonic anhydrase 6.

The values above are taken from BindingDB's records for doi:10.3109/14756366.2011.651464 (Ege University, 2013).
